The values below are quoted from earlier work in patent US6468993B1, “Method for reducing development of osteoporosis” (BioNumerik Pharmaceuticals, Inc., priority 1999, dated 2002).

One data set deals with humans. Particulars: doses exceeding 40 g/m^2.
The next data set relates to mice. The following applies: intravenously, doses higher than 3750 mg/kg.
Another data set has as its system dogs. Particulars: intravenously, doses higher than 3750 mg/kg.

With `O=S(=O)([O-])CCSSCCS(=O)(=O)[O-].[Na+].[Na+]` [dimesna, disodium 2,2′-dithiobis ethane sulfonate], the “adverse effects after administration” value in the data set with humans, in the data set with mice and in the data set on dogs was “no adverse effects” in each case.

Take `[Cl-].[Na+]` [common table salt]: the “accepted oral LD50” value is listed as 3750 mg/kg.
